Assay results as given in PubChem BioAssay AID330 (DTP/NCI, 2004).
Where “and” joins values, the source holds several entries; their conditions need not be identical. Identical values can stand only once. Inconclusive results and toxic doses are left out.

Test system: P388 leukemia ip, CD2F1 mice, survival T/C
Test: NCI In Vivo Anticancer Drug Screen. Data for tumor model P388 Leukemia (intraperitoneal) in CD2F1 (CDF1) mice
Settings: endpoint: median survival time, higher = longer survival
Procedure, shortened: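 Mice carrying the transplanted tumor received test compound or vehicle. Survival was recorded in each group, and the value is the treated-group measurement divided by that of the vehicle-treated control group.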

[1] = dose: 100.0 mg/kg/injection, schedule: Q04DX003 (ip), vehicle: saline with Tween-80
[2] = dose: 400.0 mg/kg/injection, schedule: Q04DX003 (ip), vehicle: saline with Tween-80
[3] = dose: 50.0 mg/kg/injection, schedule: Q01DX009 (ip), vehicle: saline with Tween-80
[4] = dose: 100.0 mg/kg/injection, schedule: Q01DX009 (ip), vehicle: saline with Tween-80
[5] = dose: 200.0 mg/kg/injection, schedule: Q01DX009 (ip), vehicle: saline with Tween-80
[6] = dose: 100.0 mg/kg/injection, schedule: Q01DX001 (ip), vehicle: saline with Tween-80
[7] = dose: 200.0 mg/kg/injection, schedule: Q01DX001 (ip), vehicle: saline with Tween-80
[8] = dose: 400.0 mg/kg/injection, schedule: Q01DX001 (ip), vehicle: saline with Tween-80
[9] = dose: 50.0 mg/kg/injection, schedule: Q01DX005 (ip), vehicle: Klucel (hydroxypropylcellulose) (HPC)
[10] = dose: 100.0 mg/kg/injection, schedule: Q01DX005 (ip), vehicle: Klucel (hydroxypropylcellulose) (HPC)
[11] = dose: 60.0 mg/kg/injection, schedule: Q01DX005 (ip), vehicle: saline with Tween-80
[12] = dose: 6.25 mg/kg/injection, schedule: Q04DX002 (ip), vehicle: saline with Tween-80
[13] = dose: 12.5 mg/kg/injection, schedule: Q04DX002 (ip), vehicle: saline with Tween-80
[14] = dose: 25.0 mg/kg/injection, schedule: Q04DX002 (ip), vehicle: saline with Tween-80

CC1=C(C#N)C(C)(C)C(C#N)=C(C)N1
T/C (dose: 12.5 mg/kg/injection, schedule: Q01DX009 (ip), vehicle: other): 108 % of control | T/C (dose: 25.0 mg/kg/injection, schedule: Q01DX009 (ip), vehicle: other): 106 % of control | T/C (dose: 50.0 mg/kg/injection, schedule: Q01DX009 (ip), vehicle: other): 92 % of control

COC(=O)C1=C(C)NC(=O)NC1c1ccc(OC)cc1 (stereo unspecified)
T/C [1]: 95 % of control | T/C (dose: 200.0 mg/kg/injection, schedule: Q04DX003 (ip), vehicle: saline with Tween-80): 95 % of control | T/C [2]: 100 % of control

C(=C\c1nc2ccccc2s1)/c1ccc2c(c1)OCO2
T/C [3]: 90 % of control | T/C [4]: 90 % of control | T/C [5]: 100 % of control

NC(=S)N/N=C\c1ccc(/C=N/NC(N)=S)cc1
T/C [1]: 91 % of control | T/C [2]: 86 % of control

CCC1OC(=O)CC(O)C(C)C(OC2OC(C)C(O)C(N(C)C)C2O)C(CC=O)CC(C)C(=O)/C=C/C2(C)OC2C1C (stereo unspecified)
T/C (dose: 9.38 mg/kg/injection, schedule: Q01DX009 (ip), vehicle: Klucel (hydroxypropylcellulose) (HPC)): 110 % of control | T/C (dose: 9.4 mg/kg/injection, schedule: Q01DX009 (ip), vehicle: Klucel (hydroxypropylcellulose) (HPC)): 95 % of control | T/C (dose: 18.75 mg/kg/injection, schedule: Q01DX009 (ip), vehicle: Klucel (hydroxypropylcellulose) (HPC)): 101 % of control and 119 % of control | T/C (dose: 37.5 mg/kg/injection, schedule: Q01DX009 (ip), vehicle: Klucel (hydroxypropylcellulose) (HPC)): 103 % of control | T/C (dose: 75.0 mg/kg/injection, schedule: Q01DX009 (ip), vehicle: Klucel (hydroxypropylcellulose) (HPC)): 101 % of control and 123 % of control | T/C (dose: 150.0 mg/kg/injection, schedule: Q01DX009 (ip), vehicle: Klucel (hydroxypropylcellulose) (HPC)): 124 % of control

CCOC(=O)c1c(NC(=S)NC)sc2c1CCCC2
T/C [3]: 106 % of control | T/C [4]: 108 % of control | T/C [5]: 91 % of control

C#CCN1CC(OC)Nc2c(O)cccc2C1=O (stereo unspecified) (tested in a mixture with another compound)
T/C (dose: 2.5 mg/kg/injection, schedule: Q01DX005 (ip), vehicle: water): 113 % of control | T/C (dose: 5.0 mg/kg/injection, schedule: Q01DX005 (ip), vehicle: water): 110 % of control and 113 % of control | T/C (dose: 10.0 mg/kg/injection, schedule: Q01DX005 (ip), vehicle: water): 123 % of control | T/C (dose: 20.0 mg/kg/injection, schedule: Q01DX005 (ip), vehicle: water): 119 % of control and 123 % of control

OC1CCCCC1C1CCCCC1O (stereo unspecified)
T/C [6]: 105 % of control | T/C [7]: 99 % of control | T/C [8]: 104 % of control

COc1cc(O)c(O)cc1C(C)(C)C
T/C (dose: 22.5 mg/kg/injection, schedule: Q01DX005 (ip), vehicle: saline with Tween-80): 106 % of control | T/C (dose: 45.0 mg/kg/injection, schedule: Q01DX005 (ip), vehicle: saline with Tween-80): 110 % of control | T/C (dose: 90.0 mg/kg/injection, schedule: Q01DX005 (ip), vehicle: saline with Tween-80): 97 % of control

O/C(=C(\c1ccccc1)n1ncc2c1OCCC2)c1ccccc1
T/C (dose: 50.0 mg/kg/injection, schedule: Q01DX001 (ip), vehicle: Klucel (hydroxypropylcellulose) (HPC)): 94 % of control | T/C (dose: 100.0 mg/kg/injection, schedule: Q01DX001 (ip), vehicle: Klucel (hydroxypropylcellulose) (HPC)): 95 % of control

CC1CN=C(c2ccc(NC(=O)NCCCNC(=O)Nc3ccc(C4=NCC(C)N4)cc3)cc2)N1 (stereo unspecified)
T/C [9]: 153 % of control and 158 % of control

CCCC1OP(=O)(N(CCOC(C)=O)CCOC(C)=O)OCC1CC (stereo unspecified)
T/C [9]: 96 % of control | T/C [10]: 98 % of control | T/C (dose: 200.0 mg/kg/injection, schedule: Q01DX005 (ip), vehicle: Klucel (hydroxypropylcellulose) (HPC)): 96 % of control

COc1cc(Br)c(-c2coc3c(OC)c(OC)ccc3c2=O)cc1OC
T/C (dose: 15.0 mg/kg/injection, schedule: Q01DX005 (ip), vehicle: saline with Tween-80): 89 % of control | T/C (dose: 30.0 mg/kg/injection, schedule: Q01DX005 (ip), vehicle: saline with Tween-80): 88 % of control | T/C [11]: 86 % of control

BrCc1ccc2c(c1)CCC2
T/C (dose: 50.0 mg/kg/injection, schedule: Q01DX009 (ip), vehicle: distilled water + alcohol): 106 % of control | T/C (dose: 100.0 mg/kg/injection, schedule: Q01DX009 (ip), vehicle: distilled water + alcohol): 113 % of control | T/C (dose: 200.0 mg/kg/injection, schedule: Q01DX009 (ip), vehicle: distilled water + alcohol): 97 % of control

NCCCCS(=O)(=O)Nc1ccc(Nc2c3ccccc3nc3cc([N+](=O)[O-])ccc23)cc1
T/C (dose: 22.0 mg/kg/injection, schedule: Q04DX003 (ip), vehicle: saline): 122 % of control | T/C (dose: 38.9 mg/kg/injection, schedule: Q04DX003 (ip), vehicle: water): 164 % of control | T/C (dose: 50.0 mg/kg/injection, schedule: Q04DX003 (ip), vehicle: saline): 150 % of control | T/C (dose: 64.8 mg/kg/injection, schedule: Q04DX003 (ip), vehicle: water): 180 % of control | T/C (dose: 75.0 mg/kg/injection, schedule: Q04DX003 (ip), vehicle: saline): 150 % of control | T/C (dose: 108.0 mg/kg/injection, schedule: Q04DX003 (ip), vehicle: water): 198 % of control | T/C (dose: 150.0 mg/kg/injection, schedule: Q04DX003 (ip), vehicle: saline): 172 % of control | T/C (dose: 180.0 mg/kg/injection, schedule: Q04DX003 (ip), vehicle: water): 99 % of control | T/C (dose: 300.0 mg/kg/injection, schedule: Q04DX003 (ip), vehicle: saline): 118 % of control

O=C(c1ccccc1)c1c(-c2ccccc2)c(=O)n2c(sc3ccccc32)c1C(=O)c1ccccc1
T/C [6]: 93 % of control | T/C [7]: 100 % of control | T/C [8]: 109 % of control

CCOC(=O)c1cnc2c(OC)ccc(OC)c2c1Cl
T/C (dose: 50.0 mg/kg/injection, schedule: Q01DX005 (ip), vehicle: saline with Tween-80): 97 % of control | T/C (dose: 100.0 mg/kg/injection, schedule: Q01DX005 (ip), vehicle: saline with Tween-80): 97 % of control | T/C (dose: 200.0 mg/kg/injection, schedule: Q01DX005 (ip), vehicle: saline with Tween-80): 99 % of control

CN=C(Nc1ccccn1)c1ccc(NC(=O)c2ccc(C(=O)Nc3ccc(C(=NC)Nc4ccccn4)cc3)cc2)cc1
T/C [9]: 107 % of control | T/C [10]: 110 % of control

CNC(=O)n1cnc2ccccc21
T/C [4]: 110 % of control and 111 % of control | T/C [5]: 105 % of control and 118 % of control | T/C (dose: 400.0 mg/kg/injection, schedule: Q01DX009 (ip), vehicle: saline with Tween-80): 120 % of control and 124 % of control

COc1ccc2c(c1)N(S(=O)(=O)c1ccc(C)cc1)CC1=C2CCP1(C)=O (stereo unspecified)
T/C (dose: 100.0 mg/kg/injection, schedule: Q01DX001 (ip), vehicle: saline): 111 % of control | T/C (dose: 200.0 mg/kg/injection, schedule: Q01DX001 (ip), vehicle: saline): 111 % of control | T/C (dose: 400.0 mg/kg/injection, schedule: Q01DX001 (ip), vehicle: saline): 112 % of control

Cc1c([O-])on[n+]1Cc1ccccc1
T/C [11]: 102 % of control

COc1cc2ccnc(-c3nccc4cc(OC)c(OC)cc34)c2cc1OC
T/C [6]: 97 % of control | T/C [7]: 92 % of control | T/C [8]: 97 % of control

COc1cc2c(c(OC)c1OC)-c1cc3c(cc1CC(COC(C)=O)C(COC(C)=O)C2)OCO3 (stereo unspecified)
T/C [12]: 103 % of control | T/C [13]: 101 % of control | T/C [14]: 100 % of control

Cc1ccn2ncnc2c1
T/C [3]: 101 % of control | T/C [4]: 102 % of control | T/C [5]: 91 % of control

C/C=C/C[P+](c1ccccc1)(c1ccccc1)c1cccc2ccccc12
T/C [12]: 121 % of control | T/C [13]: 99 % of control | T/C [14]: 108 % of control

Nc1nc(CC(N)C(=O)O)c[se]1 (stereo unspecified)
T/C (dose: 60.0 mg/kg/injection, schedule: Q01DX005 (ip), vehicle: saline): 97 % of control | T/C (dose: 120.0 mg/kg/injection, schedule: Q01DX005 (ip), vehicle: saline): 100 % of control | T/C (dose: 240.0 mg/kg/injection, schedule: Q01DX005 (ip), vehicle: saline): 100 % of control

O=C1OC(=O)C23Cc4ccccc4CC12CC1Cc2ccccc2CC1C3 (stereo unspecified)
T/C (dose: 50.0 mg/kg/injection, schedule: Q01DX009 (ip), vehicle: Klucel (hydroxypropylcellulose) (HPC)): 100 % of control | T/C (dose: 100.0 mg/kg/injection, schedule: Q01DX009 (ip), vehicle: Klucel (hydroxypropylcellulose) (HPC)): 88 % of control | T/C (dose: 200.0 mg/kg/injection, schedule: Q01DX009 (ip), vehicle: Klucel (hydroxypropylcellulose) (HPC)): 94 % of control

NC=NC(CCC(=O)O)C(=O)O (stereo unspecified)
T/C (dose: 50.0 mg/kg/injection, schedule: Q01DX005 (ip), vehicle: saline): 106 % of control and 92 % of control | T/C (dose: 100.0 mg/kg/injection, schedule: Q01DX005 (ip), vehicle: saline): 99 % of control
